Measurements published in PubChem BioAssay (NCI).
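At the GI50, growth is halved. TGI is the concentration that stops growth completely.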

Experiments:
Experiment in all cases: growth of human tumour cells (NCI), 384-well format
K-562 leukemia = system: K-562 leukemia
HL-60(TB) leukemia = system: HL-60(TB) leukemia
U251 glioblastoma = system: U251 glioblastoma
SNB-75 CNS = system: SNB-75 CNS
EKVX NSCLC = system: EKVX NSCLC
HOP-62 NSCLC = system: HOP-62 NSCLC
UACC-257 melanoma = system: UACC-257 melanoma
MDA-MB-468 breast = system: MDA-MB-468 breast
NCI-H522 lung = system: NCI-H522 lung
SF-295 CNS = system: SF-295 CNS
SNB-19 CNS = system: SNB-19 CNS
NCI-H460 NSCLC = system: NCI-H460 NSCLC
OVCAR-3 ovarian = system: OVCAR-3 ovarian
NCI/ADR-RES ovarian = system: NCI/ADR-RES ovarian
IGROV1 ovarian = system: IGROV1 ovarian
LOX IMVI melanoma = system: LOX IMVI melanoma
UACC-62 melanoma = system: UACC-62 melanoma
SK-MEL-28 melanoma = system: SK-MEL-28 melanoma
SF-539 CNS = system: SF-539 CNS
COLO 205 colon = system: COLO 205 colon
OVCAR-4 ovarian = system: OVCAR-4 ovarian
SK-OV-3 ovarian = system: SK-OV-3 ovarian
NCI-H23 lung = system: NCI-H23 lung
MALME-3M melanoma = system: MALME-3M melanoma
TK-10 renal = system: TK-10 renal
PC-3 prostate = system: PC-3 prostate
OVCAR-8 ovarian = system: OVCAR-8 ovarian
SK-MEL-2 melanoma = system: SK-MEL-2 melanoma
SK-MEL-5 melanoma = system: SK-MEL-5 melanoma
BT-549 breast = system: BT-549 breast
CAKI-1 renal = system: CAKI-1 renal
HCT-116 colon = system: HCT-116 colon
M14 melanoma = system: M14 melanoma
RPMI-8226 leukemia = system: RPMI-8226 leukemia
SW-620 colon = system: SW-620 colon
HCT-15 colon = system: HCT-15 colon
HCC-2998 colon = system: HCC-2998 colon
786-0 renal = system: 786-0 renal
MOLT-4 leukemia = system: MOLT-4 leukemia
A498 renal = system: A498 renal
HOP-92 NSCLC = system: HOP-92 NSCLC
SN12C renal = system: SN12C renal
CCRF-CEM leukemia = system: CCRF-CEM leukemia
MDA-MB-435 melanoma = system: MDA-MB-435 melanoma
DU-145 prostate = system: DU-145 prostate
A549 NSCLC = system: A549 NSCLC
T-47D breast = system: T-47D breast

## Cc1cc(-c2nnc(N)nc2-c2ccc(F)cc2)cc(Cl)n1
K-562 leukemia
  GI50: 37.8 µM
  TGI: > 100 µM
HL-60(TB) leukemia
  GI50: 36.5 µM
  TGI: > 100 µM
U251 glioblastoma
  GI50: > 75.5 µM
  TGI: > 100 µM
SNB-75 CNS
  GI50: > 100 µM
  TGI: > 100 µM
EKVX NSCLC
  GI50: 52.9 µM
  TGI: > 100 µM
HOP-62 NSCLC
  GI50: > 82.1 µM
  TGI: > 100 µM
UACC-257 melanoma
  GI50: 66.5 µM
  TGI: > 100 µM
MDA-MB-468 breast
  GI50: 16.6 µM
  TGI: 68.3 µM
NCI-H522 lung
  GI50: 42.9 µM
  TGI: > 100 µM
SF-295 CNS
  GI50: > 84.4 µM
  TGI: > 100 µM
SNB-19 CNS
  GI50: > 100 µM
  TGI: > 100 µM
NCI-H460 NSCLC
  GI50: > 89.7 µM
  TGI: > 100 µM
OVCAR-3 ovarian
  GI50: > 81.9 µM
  TGI: > 100 µM
NCI/ADR-RES ovarian
  GI50: 25.3 µM
  TGI: 86.3 µM
IGROV1 ovarian
  GI50: > 90.4 µM
  TGI: > 100 µM
LOX IMVI melanoma
  GI50: > 100 µM
  TGI: > 100 µM
UACC-62 melanoma
  GI50: 75.7 µM
  TGI: > 100 µM
SK-MEL-28 melanoma
  GI50: > 100 µM
  TGI: > 100 µM
SF-539 CNS
  GI50: > 100 µM
  TGI: > 100 µM
COLO 205 colon
  GI50: > 100 µM
  TGI: > 100 µM
OVCAR-4 ovarian
  GI50: > 91.2 µM
  TGI: > 100 µM
SK-OV-3 ovarian
  GI50: > 100 µM
  TGI: > 100 µM
NCI-H23 lung
  GI50: 32.5 µM
  TGI: > 100 µM
MALME-3M melanoma
  GI50: > 100 µM
  TGI: > 100 µM
TK-10 renal
  GI50: 44.3 µM
  TGI: > 100 µM
PC-3 prostate
  GI50: > 73.2 µM
  TGI: > 100 µM
OVCAR-8 ovarian
  GI50: > 92.6 µM
  TGI: > 100 µM
SK-MEL-2 melanoma
  GI50: > 100 µM
  TGI: > 100 µM
SK-MEL-5 melanoma
  GI50: 88 µM
  TGI: > 100 µM
BT-549 breast
  GI50: 88.8 µM
  TGI: > 100 µM
CAKI-1 renal
  GI50: > 91.5 µM
  TGI: > 100 µM
HCT-116 colon
  GI50: 75.6 µM
  TGI: > 100 µM
M14 melanoma
  GI50: > 100 µM
  TGI: > 100 µM
RPMI-8226 leukemia
  GI50: 20.3 µM
  TGI: > 61.2 µM
SW-620 colon
  GI50: > 81.1 µM
  TGI: > 100 µM
HCT-15 colon
  GI50: > 100 µM
  TGI: > 100 µM
HCC-2998 colon
  GI50: > 100 µM
  TGI: > 100 µM
786-0 renal
  GI50: > 100 µM
  TGI: > 100 µM
MOLT-4 leukemia
  GI50: 30.5 µM
  TGI: > 90.8 µM
A498 renal
  GI50: > 100 µM
  TGI: > 100 µM
HOP-92 NSCLC
  GI50: > 50.9 µM
  TGI: > 100 µM
SN12C renal
  GI50: > 100 µM
  TGI: > 100 µM
CCRF-CEM leukemia
  GI50: 48.3 µM
  TGI: > 100 µM
MDA-MB-435 melanoma
  GI50: > 100 µM
  TGI: > 100 µM
DU-145 prostate
  GI50: > 100 µM
  TGI: > 100 µM
A549 NSCLC
  GI50: > 100 µM
  TGI: > 100 µM
T-47D breast
  GI50: 35.7 µM
  TGI: > 100 µM

## Cc1ccc(-c2nc(N)nc3c2nnn3Cc2cccc(CO[C@H]3CCOC3)n2)o1
K-562 leukemia
  GI50: 57.5 µM
  TGI: > 100 µM
HL-60(TB) leukemia
  GI50: > 64.3 µM
  TGI: > 100 µM
U251 glioblastoma
  GI50: > 100 µM
  TGI: > 100 µM
SNB-75 CNS
  GI50: > 100 µM
  TGI: > 100 µM
EKVX NSCLC
  GI50: > 100 µM
  TGI: > 100 µM
HOP-62 NSCLC
  GI50: > 100 µM
  TGI: > 100 µM
UACC-257 melanoma
  GI50: > 100 µM
  TGI: > 100 µM
MDA-MB-468 breast
  GI50: 35.5 µM
  TGI: 99 µM
NCI-H522 lung
  GI50: > 100 µM
  TGI: > 100 µM
SF-295 CNS
  GI50: > 100 µM
  TGI: > 100 µM
SNB-19 CNS
  GI50: > 100 µM
  TGI: > 100 µM
NCI-H460 NSCLC
  GI50: > 100 µM
  TGI: > 100 µM
OVCAR-3 ovarian
  GI50: > 100 µM
  TGI: > 100 µM
NCI/ADR-RES ovarian
  GI50: > 77.1 µM
  TGI: > 100 µM
IGROV1 ovarian
  GI50: > 100 µM
  TGI: > 100 µM
LOX IMVI melanoma
  GI50: > 100 µM
  TGI: > 100 µM
UACC-62 melanoma
  GI50: > 100 µM
  TGI: > 100 µM
SK-MEL-28 melanoma
  GI50: > 100 µM
  TGI: > 100 µM
SF-539 CNS
  GI50: > 100 µM
  TGI: > 100 µM
COLO 205 colon
  GI50: > 100 µM
  TGI: > 100 µM
OVCAR-4 ovarian
  GI50: > 100 µM
  TGI: > 100 µM
SK-OV-3 ovarian
  GI50: > 100 µM
  TGI: > 100 µM
NCI-H23 lung
  GI50: > 100 µM
  TGI: > 100 µM
MALME-3M melanoma
  GI50: > 100 µM
  TGI: > 100 µM
TK-10 renal
  GI50: > 100 µM
  TGI: > 100 µM
PC-3 prostate
  GI50: > 100 µM
  TGI: > 100 µM
OVCAR-8 ovarian
  GI50: > 100 µM
  TGI: > 100 µM
SK-MEL-2 melanoma
  GI50: > 100 µM
  TGI: > 100 µM
SK-MEL-5 melanoma
  GI50: > 53.9 µM
  TGI: > 100 µM
BT-549 breast
  GI50: > 100 µM
  TGI: > 100 µM
CAKI-1 renal
  GI50: > 100 µM
  TGI: > 100 µM
HCT-116 colon
  GI50: > 100 µM
  TGI: > 100 µM
M14 melanoma
  GI50: > 100 µM
  TGI: > 100 µM
RPMI-8226 leukemia
  GI50: 93.6 µM
  TGI: > 100 µM
SW-620 colon
  GI50: > 100 µM
  TGI: > 100 µM
HCT-15 colon
  GI50: > 100 µM
  TGI: > 100 µM
HCC-2998 colon
  GI50: > 100 µM
  TGI: > 100 µM
786-0 renal
  GI50: > 100 µM
  TGI: > 100 µM
MOLT-4 leukemia
  GI50: 42.2 µM
  TGI: > 100 µM
A498 renal
  GI50: > 100 µM
  TGI: > 100 µM
HOP-92 NSCLC
  GI50: > 100 µM
  TGI: > 100 µM
SN12C renal
  GI50: > 100 µM
  TGI: > 100 µM
CCRF-CEM leukemia
  GI50: 72 µM
  TGI: > 100 µM
MDA-MB-435 melanoma
  GI50: > 100 µM
  TGI: > 100 µM
DU-145 prostate
  GI50: > 100 µM
  TGI: > 100 µM
A549 NSCLC
  GI50: > 100 µM
  TGI: > 100 µM
T-47D breast
  GI50: 32.4 µM
  TGI: > 100 µM
